Here are results for 2 compounds from patent US20260263452A1, “ONCOLOGY COMBINATION THERAPY AND METHODS OF USE” (BeyondSpring Pharmaceuticals, Inc., priority 2023, published 2026).

This test concerns MDA-MB-231 human breast cancer. The test is described as follows: MDA-MB-231 human breast cancer SubQ xenograft model in BALB/c nude mice. Type of test: in vivo. Conditions: Day 38, abemaciclib 50 mg/kg PO QD, plinabulin 7.5 mg/kg IP BIW; for mean tumor volume: n=8 per group, vehicle control 1235±24 mm^3. Here is the method:
The anti-tumor activity of plinabulin as a single agent compared to co-administration with abemaciclib was evaluated in an MDA-MB-231 human breast cancer SubQ xenograft model in BALB/c nude mice. Plinabulin was provided as a 4 mg/mL solution in 40% Solutol, 60% Propylene Glycol. […] Abemaciclib was provided as a crystalline solid. Prior to dosing, an appropriate amount of abemaciclib solid was weighed out and dissolved in 1% hydroxyethyl cellulose in 25 mM phosphate buffer, pH=2, to a concentration of 5 mg/mL to deliver a dose of 50 mg/kg in a 10 mL/kg dosing volume. […] The vehicle control was dosed intraperitoneally at a 10 mL/kg dose volume. The MDA-MB-231 human breast tumor cell line was maintained in L-15 medium supplemented with 10% FBS at 37° C. in an atmosphere of 100% air. Cells were sub-cultured upon reaching about 90% confluence by trypsin-EDTA treatment. Cells in an exponential growth phase were harvested using a trypsin-EDTA mixture. Female BALB/c nude mice were received at 6-8 weeks of age. All mice were acclimated for 7 days prior to study initiation. The mice were housed in housed in polycarbonate cages and maintained under specific pathogen-free conditions. The mice were fed irradiated dry granule food and sterile drinking water was freely available. Mice were inoculated subcutaneously on the right flank with 0.1 mL of L-15 medium/Martigel (1:1) mixture containing a suspension of 1×10^7 cells/mouse of live MDA-MB-231 tumor cells. […] Twenty-eight days following inoculation, thirty-two mice with tumor sizes of 101-124 mm^3 were randomized into four groups of eight mice, each with a mean tumor size of 114 mm^3. Tumor volumes and body weights were recorded when the mice were randomized and were taken twice weekly thereafter. Clinical observations were made daily. Dosing was performed via intraperitoneal injection for vehicle control and plinabulin and administered via oral gavage for abemaciclib as described below in Table 1. Plinabulin was administered one hour post dose of abemaciclib on combined dosing days. [table] […] All mice are included in the TGI calculations. [formula] All statistical analyses in the xenograft study are performed with GraphPad Prism software. p≤0.05 was considered statistically significant. […] A two-tailed Student's t-test with Welch's correction was also used to verify any differences between each group and the vehicle control, as well as single agents and their respective combination groups.

`CCN1CCN(Cc2ccc(Nc3ncc(F)c(-c4cc(F)c5nc(C)n(C(C)C)c5c4)n3)nc2)CC1` [abemaciclib]: the “TGI (tumor growth inhibition) compared to the Vehicle Control group” value turned out to be 59% and the mean tumor volume came to 572±101 mm^3.
As for `CC(C)(C)c1[nH]cnc1/C=c1\[nH]c(=O)/c(=C/c2ccccc2)[nH]c1=O` [plinabulin, (3Z,6Z)-3-benzylidene-6-{[5-(2-methyl-2-propanyl)-1H-imidazol-4-yl]methylene}-2,5-piperazinedione], the “TGI (tumor growth inhibition) compared to the Vehicle Control group” value is 26% and the mean tumor volume was determined as 942±114 mm^3.
